Like-named read-outs stand apart in the source and are kept apart here.
Experiments:
Experiment in all cases: Test D pre-/postemergence plant response
Type in all cases: in vivo
[1] = system: Italian ryegrass (Lolium multiflorum); conditions: Lolium multiflorum; for pest or weed control at 8 g/ha: 8 g ai/ha; for pest or weed control at 16 g/ha: 16 g ai/ha; for pest or weed control at 31 g/ha: 31 g ai/ha; for pest or weed control at 62 g/ha: 62 g ai/ha
Source text: (§1) Seeds of plant species selected from blackgrass (Alopecurus myosuroides), Italian ryegrass (Lolium multiflorum), winter wheat (Triticum aestivum), galium (catchweed bedstraw, Galium aparine), corn (Zea mays), large (Lg) crabgrass (Digitaria sanguinalis), giant foxtail (Setaria faberii), johnsongrass (Sorghum halepense), lambsquarters (Chenopodium album), morningglory (Ipomoea coccinea), yellow nutsedge (Cyperus esculentus), pigweed (Amaranthus retroflexus), ragweed (common ragweed, Ambrosia elatior), soybean (Glycine max), bamyardgrass (Echinochloa crus-galli), oilseed rape (Brassica napus), waterhemp (common waterhemp, Amaranthus rudis), and velvetleaf (Abutilon theophrasti) were planted into a blend of loam soil and sand and treated preemergence with test chemicals formulated in a non-phytotoxic solvent mixture which included a surfactant. At the same time, plants selected from these crop and weed species and also kochia (Kochia scoparia), wild oat (Avena fatua), and chickweed (common chickweed, Stellaria media) were planted in pots containing Redi-Earth® planting medium (Scotts Company, 14111 Scottslawn Road, Marysville, Ohio 43041) comprising spaghnum peat moss, vermiculite, wetting agent and starter nutrients and treated with postemergence applications of test chemicals formulated in the same manner. Plants ranged in height from 2 to 18 cm (1- to 4-leaf stage) for postemergence treatments. Treated plants and controls were maintained in a greenhouse for 13 to 15 days, after which time all species were compared to controls and visually evaluated. Plant response ratings, summarized in Table D, are based on a scale of 0 to 100 where 0 is no effect and 100 is complete control. A dash (-) response means no test result.

[2] = system: barnyardgrass (Echinochloa crus-galli); conditions: Echinochloa crus-galli; for pest or weed control at 8 g/ha: 8 g ai/ha; for pest or weed control at 16 g/ha: 16 g ai/ha; for pest or weed control at 31 g/ha: 31 g ai/ha; for pest or weed control at 62 g/ha: 62 g ai/ha
Source text: as §1

[3] = system: blackgrass (Alopecurus myosuroides); conditions: Alopecurus myosuroides; for pest or weed control at 8 g/ha: 8 g ai/ha; for pest or weed control at 16 g/ha: 16 g ai/ha; for pest or weed control at 31 g/ha: 31 g ai/ha; for pest or weed control at 62 g/ha: 62 g ai/ha
Source text: as §1

corn (Zea mays) = conditions: Zea mays; for Corn plant response rating (crop injury, 0 = no effect, 100 = complete kill) at 62 g/ha: 62 g ai/ha
Source text: as §1

[4] = system: galium (catchweed bedstraw, Galium aparine); conditions: Galium; for pest or weed control at 8 g/ha: 8 g ai/ha; for pest or weed control at 16 g/ha: 16 g ai/ha; for pest or weed control at 31 g/ha: 31 g ai/ha; for pest or weed control at 62 g/ha: 62 g ai/ha
Source text: as §1

[5] = system: giant foxtail (Setaria faberii); conditions: Setaria faberi; for pest or weed control at 8 g/ha: 8 g ai/ha; for pest or weed control at 16 g/ha: 16 g ai/ha; for pest or weed control at 31 g/ha: 31 g ai/ha; for pest or weed control at 62 g/ha: 62 g ai/ha
Source text: as §1

[6] = system: johnsongrass (Sorghum halepense); conditions: Sorghum halepense; for pest or weed control at 8 g/ha: 8 g ai/ha; for pest or weed control at 16 g/ha: 16 g ai/ha; for pest or weed control at 31 g/ha: 31 g ai/ha; for pest or weed control at 62 g/ha: 62 g ai/ha
Source text: as §1

[7] = system: lambsquarters (Chenopodium album); conditions: Chenopodium album; for pest or weed control at 8 g/ha: 8 g ai/ha; for pest or weed control at 16 g/ha: 16 g ai/ha; for pest or weed control at 31 g/ha: 31 g ai/ha; for pest or weed control at 62 g/ha: 62 g ai/ha
Source text: as §1

[8] = system: large (Lg) crabgrass (Digitaria sanguinalis); conditions: Digitaria sanguinalis; for pest or weed control at 8 g/ha: 8 g ai/ha; for pest or weed control at 16 g/ha: 16 g ai/ha; for pest or weed control at 31 g/ha: 31 g ai/ha; for pest or weed control at 62 g/ha: 62 g ai/ha
Source text: as §1

[9] = post-emergence, Postemergence, scale 0 to 100 (0 no effect, 100 complete control), read-out: Ryegrass, Italian plant response rating
[10] = pre-emergence, Preemergence, scale 0 to 100 (0 no effect, 100 complete control), read-out: Plant response rating, Ryegrass, Italian
[11] = post-emergence, Postemergence, scale 0 to 100 (0 no effect, 100 complete control), read-out: Barnyardgrass plant response rating
[12] = pre-emergence, Preemergence, scale 0 to 100 (0 no effect, 100 complete control), read-out: Plant response rating, Barnyardgrass
[13] = post-emergence, Postemergence, scale 0 to 100 (0 no effect, 100 complete control), read-out: Blackgrass plant response rating
[14] = pre-emergence, Preemergence, scale 0 to 100 (0 no effect, 100 complete control), read-out: Plant response rating, Blackgrass
[15] = post-emergence, Postemergence, scale 0 to 100 (0 no effect, 100 complete control), read-out: Galium plant response rating
[16] = pre-emergence, Preemergence, scale 0 to 100 (0 no effect, 100 complete control), read-out: Plant response rating, Galium
[17] = post-emergence, Postemergence, scale 0 to 100 (0 no effect, 100 complete control), read-out: Foxtail, Giant plant response rating
[18] = pre-emergence, Preemergence, scale 0 to 100 (0 no effect, 100 complete control), read-out: Plant response rating, Foxtail, Giant
[19] = post-emergence, Postemergence, scale 0 to 100 (0 no effect, 100 complete control), read-out: Johnsongrass plant response rating
[20] = pre-emergence, Preemergence, scale 0 to 100 (0 no effect, 100 complete control), read-out: Plant response rating, Johnsongrass
[21] = post-emergence, Postemergence, scale 0 to 100 (0 no effect, 100 complete control), read-out: Lambsquarters plant response rating
[22] = pre-emergence, Preemergence, scale 0 to 100 (0 no effect, 100 complete control), read-out: Plant response rating, Lambsquarters
[23] = post-emergence, Postemergence, scale 0 to 100 (0 no effect, 100 complete control), read-out: Crabgrass, Large plant response rating
[24] = pre-emergence, Preemergence, scale 0 to 100 (0 no effect, 100 complete control), read-out: Plant response rating, Crabgrass, Large

Structure (SMILES): FC(F)c1cc(-c2ccccc2Oc2ncc(Cl)cn2)no1 [Compound 35, 5-chloro-2-[2-[5-(difluoromethyl)-3-isoxazolyl]phenoxy]pyrimidine]
- pest or weed control at 8 g/ha ([1]; post-emergence, Postemergence, read-out: Plant response rating (scale 0 to 100), Ryegrass, Italian): 0%
- pest or weed control at 16 g/ha [1, 9]: 0%
- pest or weed control at 31 g/ha [1, 9]: 5%
- pest or weed control at 62 g/ha ([1]; post-emergence, Postemergence, scale 0 to 100, 0 no effect, 100 complete control, read-out: Plant response rating, Ryegrass, Italian): 20%
- pest or weed control at 8 g/ha [1, 10]: 0%
- pest or weed control at 16 g/ha [1, 10]: 0%
- pest or weed control at 31 g/ha [1, 10]: 30%
- pest or weed control at 62 g/ha [1, 10]: 80%
- pest or weed control at 8 g/ha ([2]; post-emergence, Postemergence, read-out: Plant response rating (scale 0 to 100), Barnyardgrass): 10%
- pest or weed control at 16 g/ha [2, 11]: 15%
- pest or weed control at 31 g/ha [2, 11]: 20%
- pest or weed control at 62 g/ha ([2]; post-emergence, Postemergence, scale 0 to 100, 0 no effect, 100 complete control, read-out: Plant response rating, Barnyardgrass): 20%
- pest or weed control at 62 g/ha ([2]; pre-emergence, Preemergence, read-out: Plant response rating (scale 0 to 100), Barnyardgrass): 100%
- pest or weed control at 8 g/ha [2, 12]: 5%
- pest or weed control at 16 g/ha [2, 12]: 65%
- pest or weed control at 31 g/ha [2, 12]: 75%
- pest or weed control at 8 g/ha ([3]; post-emergence, Postemergence, read-out: Plant response rating (scale 0 to 100), Blackgrass): 30%
- pest or weed control at 16 g/ha [3, 13]: 35%
- pest or weed control at 31 g/ha [3, 13]: 40%
- pest or weed control at 62 g/ha ([3]; post-emergence, Postemergence, scale 0 to 100, 0 no effect, 100 complete control, read-out: Plant response rating, Blackgrass): 60%
- pest or weed control at 8 g/ha [3, 14]: 70%
- pest or weed control at 16 g/ha [3, 14]: 70%
- pest or weed control at 31 g/ha [3, 14]: 90%
- pest or weed control at 62 g/ha [3, 14]: 90%
- plant injury at 8 g/ha (corn (Zea mays); post-emergence, Postemergence, 8 g ai/ha, read-out: Plant response rating (scale 0 to 100), Corn): 5%
- plant injury at 16 g/ha (corn (Zea mays); post-emergence, Postemergence, 16 g ai/ha, scale 0 to 100 (0 no effect, 100 complete control), read-out: Corn plant response rating): 5%
- plant injury at 31 g/ha (corn (Zea mays); post-emergence, Postemergence, 31 g ai/ha, scale 0 to 100 (0 no effect, 100 complete control), read-out: Corn plant response rating): 10%
- Corn plant response rating (crop injury, 0 = no effect, 100 = complete kill) at 62 g/ha (corn (Zea mays); post-emergence, Postemergence, scale 0 to 100, 0 no effect, 100 complete control): 20%
- Corn plant response rating (crop injury, 0 = no effect, 100 = complete kill) at 8 g/ha (corn (Zea mays); pre-emergence, Preemergence, 8 g ai/ha, scale 0 to 100 (0 no effect, 100 complete control)): 0%
- Corn plant response rating (crop injury, 0 = no effect, 100 = complete kill) at 16 g/ha (corn (Zea mays); pre-emergence, Preemergence, 16 g ai/ha, scale 0 to 100 (0 no effect, 100 complete control)): 0%
- Corn plant response rating (crop injury, 0 = no effect, 100 = complete kill) at 31 g/ha (corn (Zea mays); pre-emergence, Preemergence, 31 g ai/ha, scale 0 to 100 (0 no effect, 100 complete control)): 0%
- Corn plant response rating (crop injury, 0 = no effect, 100 = complete kill) at 62 g/ha (corn (Zea mays); pre-emergence, Preemergence, scale 0 to 100 (0 no effect, 100 complete control)): 15%
- pest or weed control at 8 g/ha ([4]; post-emergence, Postemergence, read-out: Plant response rating (scale 0 to 100), Galium): 80%
- pest or weed control at 16 g/ha [4, 15]: 70%
- pest or weed control at 31 g/ha [4, 15]: 75%
- pest or weed control at 62 g/ha ([4]; post-emergence, Postemergence, scale 0 to 100, 0 no effect, 100 complete control, read-out: Plant response rating, Galium): 85%
- pest or weed control at 8 g/ha [4, 16]: 85%
- pest or weed control at 16 g/ha [4, 16]: 100%
- pest or weed control at 31 g/ha [4, 16]: 100%
- pest or weed control at 62 g/ha [4, 16]: 100%
- pest or weed control at 8 g/ha ([5]; post-emergence, Postemergence, read-out: Plant response rating (scale 0 to 100), Foxtail, Giant): 5%
- pest or weed control at 16 g/ha [5, 17]: 5%
- pest or weed control at 31 g/ha [5, 17]: 10%
- pest or weed control at 62 g/ha ([5]; post-emergence, Postemergence, scale 0 to 100, 0 no effect, 100 complete control, read-out: Plant response rating, Foxtail, Giant): 15%
- pest or weed control at 8 g/ha [5, 18]: 70%
- pest or weed control at 16 g/ha [5, 18]: 90%
- pest or weed control at 31 g/ha [5, 18]: 98%
- pest or weed control at 62 g/ha [5, 18]: 100%
- pest or weed control at 8 g/ha ([6]; post-emergence, Postemergence, read-out: Plant response rating (scale 0 to 100), Johnsongrass): 0%
- pest or weed control at 16 g/ha [6, 19]: 10%
- pest or weed control at 31 g/ha [6, 19]: 5%
- pest or weed control at 62 g/ha ([6]; post-emergence, Postemergence, scale 0 to 100, 0 no effect, 100 complete control, read-out: Plant response rating, Johnsongrass): 35%
- pest or weed control at 8 g/ha [6, 20]: 0%
- pest or weed control at 16 g/ha [6, 20]: 10%
- pest or weed control at 31 g/ha [6, 20]: 60%
- pest or weed control at 62 g/ha [6, 20]: 98%
- pest or weed control at 8 g/ha ([7]; post-emergence, Postemergence, read-out: Plant response rating (scale 0 to 100), Lambsquarters): 75%
- pest or weed control at 16 g/ha [7, 21]: 80%
- pest or weed control at 31 g/ha [7, 21]: 85%
- pest or weed control at 62 g/ha ([7]; post-emergence, Postemergence, scale 0 to 100, 0 no effect, 100 complete control, read-out: Plant response rating, Lambsquarters): 95%
- pest or weed control at 8 g/ha [7, 22]: 100%
- pest or weed control at 16 g/ha [7, 22]: 100%
- pest or weed control at 31 g/ha [7, 22]: 98%
- pest or weed control at 62 g/ha [7, 22]: 100%
- pest or weed control at 8 g/ha ([8]; post-emergence, Postemergence, read-out: Plant response rating (scale 0 to 100), Crabgrass, Large): 5%
- pest or weed control at 16 g/ha [8, 23]: 10%
- pest or weed control at 31 g/ha [8, 23]: 10%
- pest or weed control at 62 g/ha ([8]; post-emergence, Postemergence, scale 0 to 100, 0 no effect, 100 complete control, read-out: Plant response rating, Crabgrass, Large): 10%
- pest or weed control at 8 g/ha [8, 24]: 80%
- pest or weed control at 16 g/ha [8, 24]: 100%
- pest or weed control at 31 g/ha [8, 24]: 100%
- pest or weed control at 62 g/ha [8, 24]: 100%

Source: patent publication US10131652B2, “Pyrimidinyloxy benzene derivatives as herbicides” (E. I. DU PONT DE NEMOURS AND COMPANY, priority 2014, dated 2018)
